Patent US20250163119A1, “COMPOUNDS FOR THE TREATMENT OF DIABETES OR OBESITY” (Eli Lilly and Company, priority 2023, published 2025)
*1 amine or outer side, *2 acyl side, *3 side chain or, on linkers, in order; H or OH if unused. Where a SMILES comes first, the peptide text is derived from it. Side-chain parts run from the residue outwards. [ ]: non-standard residue; d: D form. The star is where a group is joined. C20 diacid = O=C(O)CCCCCCCCCCCCCCCCCCC(=O)*; γGlu = O=C(O)[C@H](CCC(=O)[*:2])N[*:1]; εLys = N[C@@H](CCCCN[*:1])C(=O)[*:2]; NMeI = CC[C@H](C)[C@H](NC)C(=O)O; αMeL = CC(C)C[C@](C)(N)C(=O)O; AEEA = NCCOCCOCC(=O)O; Aib = CC(C)(N)C(=O)O

Legend:
[1] = tested on: MHC-II presented peptides on human dendritic cells; experiment: MAPPS assay (MHC-Associated Peptide Proteomics); format: cell-based; details: for peptides displayed on MHC-II complexes: human dendritic cells from normal donors; for immunogenicity compared with SEQ ID NO:54: in the MAPPs assay and/or the T cell proliferation assay
Method: MAPPS profiles the MHC-II presented peptides on human dendritic cells treated with tested molecules. CD14+ cells, isolated from the PBMCs of normal human donors, were cultured and differentiated into immature DCs by incubation with IL-4 and GM-CSF. On day 4, culture media was replaced with fresh media containing tested molecules. On day 5, LPS was added to transform the cells into mature DCs. On day 6, cells were lysed in RIPA buffer with protease inhibitors. Immunoprecipitation of MHC-II complexes were performed using biotinylated anti-MHC-II antibody coupled to streptavidin beads. The bound complex was eluted and filtered. The isolated MHC-II peptides were analyzed by a mass spectrometer. Peptide identifications were generated by an internal proteomics pipeline using search algorithms with no enzyme and a bovine/human database with test sequences appended to the database. A KNIME workflow was used to process the identification files from the samples. Peptides identified from the test articles were aligned against the parent sequence of the test molecule. The output was used to determine the percentage of donors displaying MHC-II peptides from regions of the test molecule. Polypeptides comprising SEQ ID NOs:54, 49, 50, 29, 41, 45, 1, 22, 25 were tested in the MAPPs assay. […] Depending on the donors, up to three major clusters were observed, each slightly shifted from the others, altogether spanning residues 1-33.

human CRHR1 = target: T1, human CRHR1 (Homo sapiens, UniProt P34998); experiment: Human CRHR1 cAMP assay (HTRF) in HEK293 cells stably expressing human CRHR1; format: cell-based; details: HEK293 cells overexpressing human CRHR1; relative EC50, maximum 66 nM human UCN1; mean ± SE; read-out: hCRHR1 cAMP EC50 (pM, ± SE)
T1 construct: expressed in transfected cells
T1 sequence (P34998 24-415): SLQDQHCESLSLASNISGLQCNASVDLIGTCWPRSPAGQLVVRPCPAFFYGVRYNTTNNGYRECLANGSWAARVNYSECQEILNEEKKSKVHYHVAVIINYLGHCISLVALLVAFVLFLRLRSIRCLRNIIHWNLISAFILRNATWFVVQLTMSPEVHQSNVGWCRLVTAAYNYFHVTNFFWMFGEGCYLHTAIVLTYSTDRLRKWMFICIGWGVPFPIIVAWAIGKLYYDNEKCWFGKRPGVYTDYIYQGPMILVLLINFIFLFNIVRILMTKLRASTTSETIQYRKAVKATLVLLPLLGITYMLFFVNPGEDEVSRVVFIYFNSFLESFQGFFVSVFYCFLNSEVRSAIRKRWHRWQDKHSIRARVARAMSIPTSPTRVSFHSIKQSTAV
Summary of the method: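 HEK293 cells stably expressing human CRHR1 (25,000/well) or CRHR2b (5,000/well) were treated with peptides in MEM with 0.1% casein, 5 mM HEPES pH 7.4 and 0.25 mM IBMX. Incubation was 1 h at 37 °C for CRHR1 and 30 min at room temperature for CRHR2. cAMP was measured by HTRF (665/620 nm) against a per-experiment cAMP standard curve.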

[2] = donors displaying MHC-II peptides / donors tested
[3] = percentage of donors displaying MHC-II peptides

| Compound | MAPPS Assay >10 donors with diverse MHC [1, 2] | peptides displayed on MHC-II complexes [1] | immunogenicity compared with SEQ ID NO:54 [1] | MAPPS Assay >10 donors with diverse MHC [1, 3] [%] | EC50 (human CRHR1) [pM] |
| --- | --- | --- | --- | --- | --- |
| CC[C@H](C)[C@H](NC(C)=O)C(=O)N[C@H](C(=O)N[C@H](C(=O)N[C@@H](CO)C(=O)N[C@@](C)(CC(C)C)C(=O)N[C@@H](CC(=O)O)C(=O)N[C@@H](C(=O)N1CCC[C@H]1C(=O)N[C@H](C(=O)NCC(=O)N[C@@](C)(CC(C)C)C(=O)N[C@@H](CC(C)C)C(=O)N[C@@H](CCC(N)=O)C(=O)N[C@H](C(=O)N[C@@H](CCCCN)C(=O)N[C@@H](CC(C)C)C(=O)N[C@@H](CCC(=O)O)C(=O)N[C@@H](CCC(N)=O)C(=O)N[C@@H](CCC(=O)O)C(=O)N[C@@H](CCCNC(=N)N)C(=O)N[C@@H](C)C(=O)N[C@@H](CCC(=O)O)C(=O)N[C@@H](CCCCN)C(=O)N[C@@H](C)C(=O)N[C@@H](CCCNC(=N)N)C(=O)N[C@@H](CCC(N)=O)C(=O)N[C@@H](CCC(N)=O)C(=O)N[C@@H](C)C(=O)N[C@@H](CCCCNC(=O)COCCOCCNC(=O)COCCOCCNC(=O)CC[C@H](NC(=O)CCCCCCCCCCCCCCCCCCC(=O)O)C(=O)O)C(=O)N[C@@H](CCC(=O)O)C(=O)N[C@@H](CC(N)=O)C(=O)N[C@H](C(=O)N[C@@H](CCC(=O)O)C(=O)N[C@H](C(=O)N[C@@H](CC(C)C)C(=O)N[C@@H](C)C(=O)N[C@@H](CCC(N)=O)C(=O)N[C@H](C(N)=O)C(C)C)[C@@H](C)CC)[C@@H](C)O)[C@@H](C)CC)[C@@H](C)O)C(C)C)[C@@H](C)O)C(C)C [SEQ ID NO: 29, Ac-IVTS αMeL D (D-Val) PTG αMeL LQIKLEQERAEKARQ QAK((2-[2-(2-Amino-ethoxy)-ethoxy]-acetyl)2-γE-CO-(CH2)18-CO2H)ENTEILAQV-NH2] (Ac-IVTS[αMeL]D[dV]PTG[αMeL]LQIKLEQERAEKARQQAK([AEEA-AEEA-γGlu-C20 diacid])ENTEILAQV-NH2) | 8/30 | at least one peptide cluster on MHC-II complexes in a subset of donors | substantial improvements in immunogenicity over a compound comprising SEQ ID NO:54 | 27 | > 1e+07 |
| CC[C@H](C)[C@H](NC(C)=O)C(=O)N[C@H](C(=O)N[C@H](C(=O)N[C@@H](CO)C(=O)N[C@@](C)(CC(C)C)C(=O)N[C@@H](CC(=O)O)C(=O)N[C@@H](C(=O)N1CCC[C@H]1C(=O)N[C@H](C(=O)NC(C)(C)C(=O)N[C@@](C)(CC(C)C)C(=O)N[C@@H](CC(C)C)C(=O)N[C@@H](CCC(N)=O)C(=O)N[C@H](C(=O)N[C@@H](CCCCN)C(=O)N[C@@H](CC(C)C)C(=O)N[C@@H](CCC(=O)O)C(=O)N[C@@H](CCC(N)=O)C(=O)N[C@@H](CCC(=O)O)C(=O)N[C@@H](CCCNC(=N)N)C(=O)N[C@@H](C)C(=O)N[C@@H](CCC(=O)O)C(=O)N[C@@H](CCCCN)C(=O)N[C@@H](C)C(=O)N[C@@H](CCCNC(=N)N)C(=O)N[C@@H](CCC(N)=O)C(=O)N[C@@H](CCC(N)=O)C(=O)N[C@@H](C)C(=O)N[C@@H](CCCCNC(=O)COCCOCCNC(=O)COCCOCCNC(=O)CC[C@H](NC(=O)CCCCCCCCCCCCCCCCCCC(=O)O)C(=O)O)C(=O)N[C@@H](CCC(=O)O)C(=O)N[C@@H](CC(N)=O)C(=O)N[C@H](C(=O)N[C@@H](CCC(=O)O)C(=O)N[C@H](C(=O)N[C@@H](CC(C)C)C(=O)N[C@@H](C)C(=O)N[C@@H](CCC(N)=O)C(=O)N[C@H](C(N)=O)C(C)C)[C@@H](C)CC)[C@@H](C)O)[C@@H](C)CC)[C@@H](C)O)C(C)C)[C@@H](C)O)C(C)C [SEQ ID NO: 41, Ac-IVTS αMeL D (D-Val) PT Aib αMeL LQIKLEQERAEKARQQAK((2-[2-(2-Amino-ethoxy)-ethoxy]-acetyl)2-γE-CO-(CH2)18-CO2H)ENTEILAQV-NH2] (Ac-IVTS[αMeL]D[dV]PT[Aib][αMeL]LQIKLEQERAEKARQQAK([AEEA-AEEA-γGlu-C20 diacid])ENTEILAQV-NH2) | 0/10 | no peptides displayed on MHC-II complexes | substantial improvements in immunogenicity over a compound comprising SEQ ID NO:54 | 0 | 3.7e+06 |
| CC[C@H](C)[C@H](NC)C(=O)N[C@H](C(=O)N[C@H](C(=O)N[C@@H](CO)C(=O)N[C@@H](CC(C)C)C(=O)N[C@@H](CC(=O)O)C(=O)N[C@H](C(=O)N1CCC[C@H]1C(=O)N[C@H](C(=O)NCC(=O)N[C@@](C)(CC(C)C)C(=O)N[C@@H](CC(C)C)C(=O)N[C@@H](CCC(N)=O)C(=O)N[C@@H](CCCCN)C(=O)N[C@@H](CC(C)C)C(=O)N[C@H](C(=O)N[C@@H](CCC(=O)O)C(=O)N[C@@H](CCC(N)=O)C(=O)N[C@@H](CCC(=O)O)C(=O)N[C@@H](CCCCN)C(=O)N[C@@H](CCC(N)=O)C(=O)N[C@@H](CCC(=O)O)C(=O)N[C@@H](CCCCN)C(=O)N[C@@H](CCC(=O)O)C(=O)N[C@@H](CCCCN)C(=O)N[C@@H](CCC(N)=O)C(=O)N[C@@H](CCC(N)=O)C(=O)N[C@@H](C)C(=O)N[C@@H](CCCCNC(=O)COCCOCCNC(=O)COCCOCCNC(=O)CC[C@H](NC(=O)CCCCCCCCCCCCCCCCCCC(=O)O)C(=O)O)C(=O)N[C@@H](CCC(=O)O)C(=O)N[C@@H](CC(N)=O)C(=O)N[C@H](C(=O)N[C@@H](CCC(=O)O)C(=O)N[C@H](C(=O)N[C@@H](CC(C)C)C(=O)N[C@@H](C)C(=O)N[C@@H](CCC(N)=O)C(=O)N[C@H](C(N)=O)C(C)C)[C@@H](C)CC)[C@@H](C)O)[C@@H](C)CC)[C@@H](C)CC)C(C)C)[C@@H](C)O)C(C)C [SEQ ID NO: 49, (NMeI) VTSLDVPIG αMeL LQKLIEQEKQEKEKQQAK((2-[2-(2-Amino-ethoxy)-ethoxy]-acetyl)2-γE-CO-(CH2)18-CO2H)ENTEILAQV-NH2] (H-[NMeI]VTSLDVPIG[αMeL]LQKLIEQEKQEKEKQQAK([AEEA-AEEA-γGlu-C20 diacid])ENTEILAQV-NH2) | 6/26 | at least one peptide cluster on MHC-II complexes in a subset of donors | substantial improvements in immunogenicity over a compound comprising SEQ ID NO:54 | 23 | > 1e+07 |
| Ac-GSPSIVTS[αMeL]DVPT[Aib][αMeL]LQKLLEQERAEKARQQAK([γGlu-AEEA-εLys-C20 diacid])EAAEILAQV-NH2 [SEQ ID NO: 2, Ac-GSPSIVTS αMeL DVPT Aib αMeL LQKLLEQERAEKARQQAK(γE-(2-[2-(2-Amino-ethoxy)-ethoxy]-acetyl)-ϵK-CO-(CH2)18-CO2H)EAAEILAQV-NH2] | – | – | – | – | > 1e+07 |
| Ac-PPPIVTS[αMeL]DVPT[Aib][αMeL]LQKLLEQERAEKARQQAK([γGlu-AEEA-εLys-C20 diacid])EAAEILAQV-NH2 [SEQ ID NO: 48, Ac-PPPIVTS αMeL DVPT Aib αMeL LQKLLEQERAEKARQQAK(γE-(2-[2-(2-Amino-ethoxy)-ethoxy]-acetyl)-ϵK-CO-(CH2)18-CO2H)EAAEILAQV-NH2] | – | – | – | – | > 1e+07 |
